The source of these data is PubChem BioAssay (NCI).

Test systems include 786-0 renal; BT-549 breast; HCT-15 colon; KM12 colon; MOLT-4 leukemia; OVCAR-5 ovarian; SF-268 CNS; SW-620 colon; T-47D breast; UACC-62 melanoma.
Assay in all cases: NCI-60 cell line screen, 48 h

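Exposure lasted 48 hours, with cells grown in 96-well plates and compounds tested at five concentrations. At the GI50, growth is halved. TGI: total growth inhibition.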

Turning to `COc1cc2c(c(OC)c1)C1c3ccccc3NC(=O)N1CC2` (stereo not given), the GI50 is 4.63 µM in the test with 786-0 renal; 6.24 µM with BT-549 breast; 3.14 µM in the test with HCT-15 colon; 4.95 µM in the test on KM12 colon; 3.99 µM with MOLT-4 leukemia; 4.96 µM in the test with OVCAR-5 ovarian. Also, the GI50 in the test on SF-268 CNS was 7.02 µM; in the test on SW-620 colon, 4.68 µM; in the test on T-47D breast, 5.59 µM; with UACC-62 melanoma it was 3.08 µM. For the same compound, the TGI is over 100 µM in the test on 786-0 renal; 80.7 µM with BT-549 breast; over 100 µM in the test with HCT-15 colon; over 100 µM in the test with KM12 colon; over 100 µM in the test on MOLT-4 leukemia; over 100 µM in the test on OVCAR-5 ovarian. Besides, the TGI in the test with SF-268 CNS, in the test with SW-620 colon, with T-47D breast and in the test on UACC-62 melanoma was over 100 µM throughout.

For `COc1ccc(-c2csc(N(C(=O)N3CCN(c4cc5c(cc4F)c(=O)c(C(=O)O)cn5C4CC4)CC3)c3ccccc3)n2)cc1`, the GI50 is 1.15 µM in the test with 786-0 renal; 1.6 µM with BT-549 breast; 3.19 µM in the test with HCT-15 colon; 3.41 µM with KM12 colon; 3.78 µM with MOLT-4 leukemia; 3.29 µM with OVCAR-5 ovarian. Besides, the GI50 with SF-268 CNS is 3.2 µM; in the test with SW-620 colon, 4.37 µM; in the test with T-47D breast it was 2.65 µM; in the test on UACC-62 melanoma it was 2.24 µM. In addition, the TGI was over 66 µM with 786-0 renal; 7.63 µM in the test with BT-549 breast; over 100 µM with HCT-15 colon; over 100 µM in the test with KM12 colon; over 100 µM in the test with MOLT-4 leukemia; over 100 µM with OVCAR-5 ovarian. For the same compound, the TGI was over 100 µM in the test with SF-268 CNS, over 100 µM with SW-620 colon, 40.7 µM with T-47D breast and 8.91 µM with UACC-62 melanoma.

With `Nc1ccccc1C#C/C=C\C#Cc1cccs1`, the GI50 is 13.5 µM with 786-0 renal; 12.2 µM in the test with BT-549 breast; 9.45 µM in the test with HCT-15 colon; 5.66 µM in the test with KM12 colon; 2.49 µM in the test on MOLT-4 leukemia; 15.2 µM with OVCAR-5 ovarian. The GI50 was 4.26 µM in the test on SF-268 CNS, 14.4 µM with SW-620 colon, 17.4 µM in the test with T-47D breast and 5.96 µM with UACC-62 melanoma. Besides, the TGI in the test with 786-0 renal came to 35.1 µM; with BT-549 breast it was 28.7 µM; with HCT-15 colon it was 43.7 µM; in the test on KM12 colon, 25.6 µM; in the test on MOLT-4 leukemia, 84.1 µM; with OVCAR-5 ovarian, 32.7 µM. The TGI was 34.9 µM with SF-268 CNS, 33 µM in the test with SW-620 colon, 48.2 µM with T-47D breast and 19.4 µM in the test with UACC-62 melanoma.

With `CC(CCC(=O)O)[C@H]1CCC2[C@@H]3CC[C@@H]4CC(O)CC[C@]4(C)C3CC[C@@]21C` (stereo not given in full), the GI50 is 49.3 µM in the test with 786-0 renal; 53.9 µM in the test with BT-549 breast; 46.4 µM with HCT-15 colon; 40.5 µM with KM12 colon; 22 µM in the test with MOLT-4 leukemia; over 100 µM in the test on OVCAR-5 ovarian. In addition, the GI50 in the test on SF-268 CNS was over 100 µM; in the test with SW-620 colon, 42.4 µM; with T-47D breast, 33.7 µM; with UACC-62 melanoma, 38.6 µM. Also, the TGI in the test with 786-0 renal is over 100 µM; in the test on BT-549 breast it was over 100 µM; in the test with HCT-15 colon, over 100 µM; with KM12 colon, over 100 µM; with MOLT-4 leukemia it was 79 µM; with OVCAR-5 ovarian, over 100 µM. Further, the TGI in the test with SF-268 CNS, in the test with SW-620 colon, in the test on T-47D breast and in the test on UACC-62 melanoma was over 100 µM throughout.

For `CCCC(C)c1cc(Cc2cc(Cl)cc(Cl)c2O)c(O)c(Cc2cc(Cl)cc(Cl)c2O)c1` (stereo not given), the GI50 in the test with 786-0 renal was 1.64 µM; with BT-549 breast it was 1.33 µM; in the test with HCT-15 colon, 0.336 µM; in the test on KM12 colon, 2.19 µM; with MOLT-4 leukemia, 1.53 µM; in the test with OVCAR-5 ovarian, 4.05 µM. Further, the GI50 with SF-268 CNS was 1.01 µM; with SW-620 colon, 1.61 µM; in the test with T-47D breast, 0.809 µM; in the test with UACC-62 melanoma it was 0.629 µM. In addition, the TGI with 786-0 renal was found to be 6.78 µM; in the test on BT-549 breast, 5.2 µM; in the test on HCT-15 colon it was 2.44 µM; in the test on KM12 colon, 11.4 µM; with MOLT-4 leukemia it was 4.83 µM; with OVCAR-5 ovarian, 15 µM. Further, the TGI in the test on SF-268 CNS was determined as 20.7 µM; in the test on SW-620 colon, 12.7 µM; in the test on T-47D breast, 6.77 µM; in the test on UACC-62 melanoma, 4.2 µM.

Consider `COC(=O)[C@@]1(C)CC[C@]2(C)CC[C@]3(C)C4=CC=C5C(=CC(=O)C(O)=C5C)[C@]4(C)[C@@H](O)C[C@@]3(C)[C@@H]2C1`, for which the GI50 in the test with 786-0 renal was 1.79 µM; in the test with BT-549 breast, 10.5 µM; with HCT-15 colon, 5.07 µM; in the test on KM12 colon, 13 µM; in the test on MOLT-4 leukemia it was 3.18 µM; in the test with OVCAR-5 ovarian, 12.9 µM. The GI50 is 9.62 µM in the test on SF-268 CNS, 9.27 µM with SW-620 colon, 3.04 µM in the test on T-47D breast and 8.59 µM in the test on UACC-62 melanoma. Besides, the TGI with 786-0 renal is 5.23 µM; with BT-549 breast, 22.3 µM; in the test with HCT-15 colon it was 17.7 µM; with KM12 colon it was 25.1 µM; with MOLT-4 leukemia it was 20.1 µM; in the test with OVCAR-5 ovarian, 24.5 µM. The TGI stood at 22.2 µM in the test with SF-268 CNS, 20.2 µM with SW-620 colon, 15.9 µM in the test on T-47D breast and 18.9 µM in the test on UACC-62 melanoma.

As to `O=C1c2cccnc2C(=O)c2nc3cc(N4CCN(C5CC5)CC4)ccc3nc21`, the GI50 in the test on 786-0 renal is 1.38 µM; in the test with BT-549 breast, 1.04 µM; in the test with HCT-15 colon it was 0.257 µM; in the test with KM12 colon it was 1.25 µM; in the test with MOLT-4 leukemia, 2.4 µM; in the test with OVCAR-5 ovarian it was 1.34 µM. The GI50 with SF-268 CNS is 1.24 µM; with SW-620 colon it was 0.409 µM; in the test with T-47D breast, 2.16 µM; in the test on UACC-62 melanoma, 0.222 µM. Also, the TGI with 786-0 renal came out at 4 µM; with BT-549 breast it was 2.38 µM; with HCT-15 colon, 1.28 µM; with KM12 colon, 5.11 µM; in the test on MOLT-4 leukemia, 5.62 µM; with OVCAR-5 ovarian, 3.07 µM. Also, the TGI is 4.93 µM in the test with SF-268 CNS, 1.94 µM with SW-620 colon, 6.34 µM in the test on T-47D breast and 0.631 µM in the test with UACC-62 melanoma.
